Counter-ions that a name gives are not always drawn.
Assays:
[1] = Stability of solid state form (polymorphic stability by P-XRD on storage); type: physicochemical; settings: stored 3 months in self-sealing LDPE bag, normal atmospheric conditions, room temperature
Description: The X-Ray powder diffraction was measured by an X-ray powder Diffractometer equipped with CuKα-radiations (40 kV, 40 mA) in wide-angle X-ray Diffractometer of BRUKER axs, D8 ADVANCE. The sample was analyzed using the following instrument parameters: measuring range 3-45° 2-theta; step width=0.01579°; and measuring time per step=0.11 sec. Fesoterodine mandelate was prepared according to the process exemplified in Example 1 and was packed in a self-sealing low-density polyethylene (LDPE) bag. The material was stored for 3 months under normal atmospheric conditions at room temperature and checked for polymorphic stability.

[2] = Moisture absorption during filtration of the salt; type: physicochemical

CC(C)C(=O)Oc1ccc(CO)cc1[C@H](CCN(C(C)C)C(C)C)c1ccccc1.O=C(O)C(O)c1ccccc1 [Fesoterodine mandelate, mandelate salt of 2-[(1R)-3-[bis(1-methylethyl)amino]-1-phenylpropyl]-4-hydroxymethylphenyl isobutyrate]
polymorphic stability (maintenance of the original P-XRD pattern) [1]: retain its polymorphic form
moisture absorption [2]: does not absorb moisture

CC(C)C(=O)Oc1ccc(CO)cc1[C@H](CCN(C(C)C)C(C)C)c1ccccc1 [fumarate salt, fesoterodine fumarate, reference compound]
moisture absorption [2]: absorbs moisture

From patent US20110086103A1, “NOVEL MANDELATE SALT OF FESOTERODINE” (ACTAVIS GROUP PTC EHF, priority 2008, published 2011)
